Assay results as given in ChEMBL document CHEMBL3991601, “The target landscape of clinical kinase drugs” (Science, 2017).
Counter-ions that a name gives are not always drawn. Calls of active or inactive are those of the source. On the calls: in the data inactive means no Kd found up to 30 µM.

Assays:
[1] = molecular target: Serine/threonine-protein kinase PAK 6 (Homo sapiens, UniProt Q9NQU5)
[2] = molecular target: Cell division cycle 7-related protein kinase (Homo sapiens, UniProt O00311)
[3] = molecular target: Dual specificity testis-specific protein kinase 2 (Homo sapiens, UniProt Q96S53)
Chain of Dual specificity testis-specific protein kinase 2 (Q96S53 whole entry): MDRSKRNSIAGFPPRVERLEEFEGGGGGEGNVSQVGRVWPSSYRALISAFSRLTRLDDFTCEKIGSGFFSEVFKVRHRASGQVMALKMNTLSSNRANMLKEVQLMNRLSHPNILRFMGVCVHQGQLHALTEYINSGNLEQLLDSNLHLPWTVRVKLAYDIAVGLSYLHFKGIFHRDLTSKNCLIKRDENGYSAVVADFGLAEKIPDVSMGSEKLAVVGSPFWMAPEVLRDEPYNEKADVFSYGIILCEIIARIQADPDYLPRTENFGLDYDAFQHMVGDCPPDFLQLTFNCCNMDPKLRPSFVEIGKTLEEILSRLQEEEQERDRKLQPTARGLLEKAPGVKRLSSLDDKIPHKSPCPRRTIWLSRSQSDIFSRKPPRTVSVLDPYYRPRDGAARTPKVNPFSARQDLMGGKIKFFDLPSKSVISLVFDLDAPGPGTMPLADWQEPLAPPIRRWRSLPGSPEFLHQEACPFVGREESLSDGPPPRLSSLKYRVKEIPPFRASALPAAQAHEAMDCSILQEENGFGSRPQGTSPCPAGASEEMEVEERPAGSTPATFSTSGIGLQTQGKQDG

[4] = molecular target: T1, Isoleucine--tRNA ligase, mitochondrial (Homo sapiens, UniProt Q9NSE4)
T1 sequence (Q9NSE4 whole entry): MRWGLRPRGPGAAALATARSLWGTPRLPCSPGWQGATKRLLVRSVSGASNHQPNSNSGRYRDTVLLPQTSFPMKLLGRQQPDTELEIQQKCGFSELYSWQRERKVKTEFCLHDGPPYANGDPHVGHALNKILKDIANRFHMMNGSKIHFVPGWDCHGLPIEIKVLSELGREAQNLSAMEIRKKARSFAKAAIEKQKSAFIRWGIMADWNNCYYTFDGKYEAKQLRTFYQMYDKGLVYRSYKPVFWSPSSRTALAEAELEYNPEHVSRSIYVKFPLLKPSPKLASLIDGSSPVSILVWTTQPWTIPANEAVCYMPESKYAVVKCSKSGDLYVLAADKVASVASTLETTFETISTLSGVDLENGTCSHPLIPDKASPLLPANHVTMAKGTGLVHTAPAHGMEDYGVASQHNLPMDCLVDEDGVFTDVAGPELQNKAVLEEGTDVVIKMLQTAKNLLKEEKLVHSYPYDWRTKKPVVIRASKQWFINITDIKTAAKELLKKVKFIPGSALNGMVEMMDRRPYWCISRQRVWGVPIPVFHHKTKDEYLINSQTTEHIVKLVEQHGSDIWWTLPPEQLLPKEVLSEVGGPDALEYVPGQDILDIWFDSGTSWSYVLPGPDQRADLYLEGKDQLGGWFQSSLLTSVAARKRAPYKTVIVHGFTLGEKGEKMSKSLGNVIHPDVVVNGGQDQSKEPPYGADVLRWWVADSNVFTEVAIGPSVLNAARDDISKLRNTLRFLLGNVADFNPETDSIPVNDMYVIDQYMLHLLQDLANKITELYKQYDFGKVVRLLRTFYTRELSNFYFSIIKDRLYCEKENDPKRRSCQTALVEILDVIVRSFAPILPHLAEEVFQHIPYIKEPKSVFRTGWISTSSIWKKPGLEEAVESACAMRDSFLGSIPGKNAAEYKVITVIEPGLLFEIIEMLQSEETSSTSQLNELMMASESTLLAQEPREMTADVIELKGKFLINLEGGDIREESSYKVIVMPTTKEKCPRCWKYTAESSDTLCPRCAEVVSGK

UMP-CMP kinase = molecular target: T2, UMP-CMP kinase (Homo sapiens, UniProt P30085)
T2 sequence (P30085 whole entry): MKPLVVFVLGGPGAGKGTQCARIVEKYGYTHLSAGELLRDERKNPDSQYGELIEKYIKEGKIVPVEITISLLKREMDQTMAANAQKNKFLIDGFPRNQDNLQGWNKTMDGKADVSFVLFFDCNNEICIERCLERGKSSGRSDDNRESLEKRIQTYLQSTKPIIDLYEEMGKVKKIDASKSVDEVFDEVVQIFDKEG

[5] = molecular target: Dual specificity protein kinase CLK3 (Homo sapiens, UniProt P49761); format: subcellular, K-562, COLO 205, SK-N-BE(2) and MV-4-11, Cell lysate; conditions: read-out: Kd apparent
Chain of Dual specificity protein kinase CLK3 (P49761 whole entry): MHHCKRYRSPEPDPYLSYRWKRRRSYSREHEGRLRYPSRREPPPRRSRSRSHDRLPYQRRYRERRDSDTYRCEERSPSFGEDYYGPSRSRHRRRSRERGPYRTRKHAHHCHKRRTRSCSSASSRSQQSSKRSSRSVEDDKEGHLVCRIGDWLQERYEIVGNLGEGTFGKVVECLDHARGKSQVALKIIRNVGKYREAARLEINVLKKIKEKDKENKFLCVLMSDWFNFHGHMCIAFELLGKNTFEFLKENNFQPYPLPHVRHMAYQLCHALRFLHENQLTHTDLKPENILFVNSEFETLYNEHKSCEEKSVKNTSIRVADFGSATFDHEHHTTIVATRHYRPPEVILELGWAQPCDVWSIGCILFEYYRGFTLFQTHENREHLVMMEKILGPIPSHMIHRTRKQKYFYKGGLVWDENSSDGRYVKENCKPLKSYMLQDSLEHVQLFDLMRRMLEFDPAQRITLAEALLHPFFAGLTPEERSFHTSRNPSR

[6] = molecular target: T3, Dual specificity mitogen-activated protein kinase kinase 4 (Homo sapiens, UniProt P45985)
T3 sequence (P45985 whole entry): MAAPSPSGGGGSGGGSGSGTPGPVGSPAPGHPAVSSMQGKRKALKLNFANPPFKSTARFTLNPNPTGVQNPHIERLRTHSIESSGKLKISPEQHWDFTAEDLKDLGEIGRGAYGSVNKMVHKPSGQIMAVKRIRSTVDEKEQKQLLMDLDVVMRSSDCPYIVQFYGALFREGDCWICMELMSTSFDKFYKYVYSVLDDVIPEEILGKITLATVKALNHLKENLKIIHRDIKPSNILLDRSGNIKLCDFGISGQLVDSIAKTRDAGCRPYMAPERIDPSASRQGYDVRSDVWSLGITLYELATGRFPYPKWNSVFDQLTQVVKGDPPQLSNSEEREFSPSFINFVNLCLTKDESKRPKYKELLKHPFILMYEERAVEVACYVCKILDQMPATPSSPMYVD

[7] = molecular target: Uncharacterized aarF domain-containing protein kinase 5 (Homo sapiens, UniProt Q3MIX3)
Chain of Uncharacterized aarF domain-containing protein kinase 5 (Q3MIX3 whole entry, the tested form may be a part): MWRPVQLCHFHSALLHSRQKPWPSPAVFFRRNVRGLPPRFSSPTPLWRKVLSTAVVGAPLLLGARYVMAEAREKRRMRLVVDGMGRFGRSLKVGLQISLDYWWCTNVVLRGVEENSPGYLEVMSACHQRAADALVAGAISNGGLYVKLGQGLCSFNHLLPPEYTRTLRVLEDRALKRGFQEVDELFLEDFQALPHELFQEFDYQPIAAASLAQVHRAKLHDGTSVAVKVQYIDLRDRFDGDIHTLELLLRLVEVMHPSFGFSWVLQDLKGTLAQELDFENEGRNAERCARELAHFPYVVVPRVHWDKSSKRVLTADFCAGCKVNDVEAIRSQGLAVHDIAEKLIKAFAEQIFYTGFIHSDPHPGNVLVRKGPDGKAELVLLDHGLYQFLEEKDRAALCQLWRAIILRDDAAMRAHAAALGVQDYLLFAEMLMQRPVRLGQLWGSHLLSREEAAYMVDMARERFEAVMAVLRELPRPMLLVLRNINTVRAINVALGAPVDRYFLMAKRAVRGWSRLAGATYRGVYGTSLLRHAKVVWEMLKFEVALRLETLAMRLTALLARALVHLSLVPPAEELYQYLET

Chain of Cell division cycle 7-related protein kinase (O00311 whole entry): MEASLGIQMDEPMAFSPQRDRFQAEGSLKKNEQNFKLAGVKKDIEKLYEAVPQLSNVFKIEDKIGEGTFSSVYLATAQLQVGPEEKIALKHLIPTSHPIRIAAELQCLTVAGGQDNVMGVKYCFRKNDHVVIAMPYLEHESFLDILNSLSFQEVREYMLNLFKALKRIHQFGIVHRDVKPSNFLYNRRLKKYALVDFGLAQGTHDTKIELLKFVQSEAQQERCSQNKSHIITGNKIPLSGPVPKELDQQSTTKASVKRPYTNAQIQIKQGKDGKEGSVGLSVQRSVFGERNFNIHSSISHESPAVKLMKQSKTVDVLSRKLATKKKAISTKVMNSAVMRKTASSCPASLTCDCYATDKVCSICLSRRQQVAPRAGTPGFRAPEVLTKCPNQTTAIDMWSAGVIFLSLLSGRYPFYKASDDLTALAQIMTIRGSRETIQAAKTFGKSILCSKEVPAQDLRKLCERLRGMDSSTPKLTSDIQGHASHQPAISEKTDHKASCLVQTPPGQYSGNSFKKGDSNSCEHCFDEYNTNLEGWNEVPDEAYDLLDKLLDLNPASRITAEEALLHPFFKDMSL
Chain of Serine/threonine-protein kinase PAK 6 (Q9NQU5 whole entry): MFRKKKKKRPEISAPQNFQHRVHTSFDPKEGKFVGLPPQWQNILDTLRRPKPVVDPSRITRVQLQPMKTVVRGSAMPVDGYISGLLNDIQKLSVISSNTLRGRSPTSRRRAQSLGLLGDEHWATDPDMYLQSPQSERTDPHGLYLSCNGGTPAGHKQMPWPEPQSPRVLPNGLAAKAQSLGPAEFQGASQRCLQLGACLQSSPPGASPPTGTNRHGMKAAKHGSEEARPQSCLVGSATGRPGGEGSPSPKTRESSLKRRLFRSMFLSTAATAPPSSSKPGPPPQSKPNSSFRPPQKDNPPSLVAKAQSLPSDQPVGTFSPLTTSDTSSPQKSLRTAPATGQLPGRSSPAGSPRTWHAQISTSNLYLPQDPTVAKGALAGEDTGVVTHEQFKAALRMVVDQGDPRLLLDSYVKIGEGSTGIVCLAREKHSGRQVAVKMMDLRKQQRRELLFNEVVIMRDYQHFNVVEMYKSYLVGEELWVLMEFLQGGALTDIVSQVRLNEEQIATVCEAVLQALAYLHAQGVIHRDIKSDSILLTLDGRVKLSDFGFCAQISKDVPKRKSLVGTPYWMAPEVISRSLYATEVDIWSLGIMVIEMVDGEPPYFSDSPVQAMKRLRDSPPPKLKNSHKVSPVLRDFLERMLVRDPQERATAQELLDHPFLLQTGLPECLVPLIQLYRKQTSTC

Row | Compound | Kd [1] | Kd [2] | Kd [3] | Kd [4] | Kd (UMP-CMP kinase) | Kd [5] | Kd [6] | Kd [7]
1 | C[C@@H](Oc1cc(C(=O)Nc2ccc(C(=O)N3CCN(C)CC3)cc2)nnc1N)c1c(Cl)ccc(F)c1Cl | > 30 µM (inactive) | > 30 µM (inactive) | – | – | – | – | – | –
2 | C[C@H]1CNCCCN1S(=O)(=O)c1cccc2cncc(F)c12 | > 30 µM (inactive) | – | > 30 µM (inactive) | – | – | – | – | –
3 | CC(=O)c1cnc2ccc(-c3cc(Cl)c(O)c(Cl)c3)nc2c1N[C@H]1CC[C@H](CN(C)C)CC1 | – | – | – | > 30 µM (inactive) | > 30 µM (inactive) | – | – | –
4 | CCNC(=O)C#Cc1ccc2c(c1)NC(=O)/C2=C(\Nc1ccc(CN(C)C)cc1)c1ccccc1 | – | 3.99 µM (active) | – | – | – | > 30 µM (inactive) | – | –
5 | COCc1c(-c2ccc(NC(=O)Nc3cc(C(F)(F)F)ccc3F)c(F)c2)c2c(N)ncnn2c1CN1CCOCC1 | – | > 30 µM (inactive) | – | > 30 µM (inactive) | – | – | – | –
6 | COc1cc(Nc2ncc3c(n2)-c2ccc(Cl)cc2C(c2c(F)cccc2OC)=NC3)ccc1C(=O)O [ALISERTIB] | > 30 µM (inactive) | – | > 30 µM (inactive) | – | > 30 µM (inactive) | – | > 30 µM (inactive) | > 30 µM (inactive)
7 | Cc1nc(NC(=O)N2CCC[C@H]2C(N)=O)sc1-c1ccnc(C(C)(C)C(F)(F)F)c1 [ALPELISIB] | – | – | – | > 30 µM (inactive) | > 30 µM (inactive) | – | > 30 µM (inactive) | –
8 | O=C(Nc1c[nH]nc1-c1nc2cc(CN3CCOCC3)ccc2[nH]1)NC1CC1 [AT-9283] | 0.213 µM (active) | 0.511 µM | > 30 µM (inactive) | > 30 µM (inactive) | > 30 µM (inactive) | > 30 µM (inactive) | – | > 30 µM (inactive)
9 | C=CC(=O)Nc1cc2c(Nc3ccc(F)c(Cl)c3)ncnc2cc1C#CC(C)(C)N1CCN(C)CC1 [AV-412 FREE BASE] | > 30 µM (inactive) | – | > 30 µM (inactive) | – | – | – | – | > 30 µM (inactive)
10 | CNC(=O)c1ccccc1Sc1ccc2c(/C=C/c3ccccn3)n[nH]c2c1 [AXITINIB] | – | > 30 µM (inactive) | – | – | > 30 µM (inactive) | – | – | –
11 | COc1cc([C@@H]2c3cc4c(cc3[C@H](O)[C@H]3COC(=O)[C@@H]23)OCO4)cc(OC)c1OC [AXL-1717] | – | > 30 µM (inactive) | – | > 30 µM (inactive) | > 30 µM (inactive) | – | – | –
12 | NC(=O)Nc1cc(-c2cccc(F)c2)sc1C(=O)N[C@H]1CCCNC1 [AZD-7762] | – | – | > 30 µM (inactive) | – | > 30 µM (inactive) | > 30 µM (inactive) | – | > 30 µM (inactive)
13 | Cc1cc(C(=O)NOCCO)c(Nc2ccc(I)cc2F)n(C)c1=O [AZD-8330] | – | – | – | – | > 30 µM (inactive) | > 30 µM (inactive) | > 30 µM (inactive) | > 30 µM (inactive)
14 | CCn1c(C(=O)N(C2CC2)C2CC2)cc2c3c(ncn3C)c(Nc3cc(C)n(C)n3)nc21 [BMS-911543] | > 30 µM (inactive) | > 30 µM (inactive) | – | > 30 µM (inactive) | > 30 µM (inactive) | > 30 µM (inactive) | – | > 30 µM (inactive)
15 | C#Cc1cccc(Nc2ncnc3cc(OC)c(OCCCCCCC(=O)NO)cc23)c1 [CUDC-101] | > 30 µM (inactive) | > 30 µM (inactive) | – | – | – | > 30 µM (inactive) | – | > 30 µM (inactive)
16 | CCS(=O)(=O)N1CCN(c2ccc(Nc3ncc(C(N)=O)c(NC4CC4)n3)cc2)CC1 [Cerdulatinib Hydrochloride] | > 30 µM (inactive) | > 30 µM (inactive) | – | – | – | – | – | > 30 µM (inactive)
17 | Cn1cc(C2=C(c3cn(C4CCN(Cc5ccccn5)CC4)c4ccccc34)C(=O)NC2=O)c2ccccc21 [ENZASTAURIN] | – | > 30 µM (inactive) | > 30 µM (inactive) | – | – | – | – | –

Row | Compound | Kd [1] | Kd [2] | Kd [3] | Kd [4] | Kd (UMP-CMP kinase) | Kd [5] | Kd [6] | Kd [7]
18 | Cc1nc2cc(-n3ncc(C(=O)c4cc5ccccc5[nH]4)c3N)ccc2[nH]1 [FGFR INHIBITOR DEBIO 1347] | – | > 30 µM (inactive) | > 30 µM (inactive) | > 30 µM (inactive) | > 30 µM (inactive) | – | – | –
19 | Cc1cccc(-c2nn3c(c2-c2ccnc4ccc(C(N)=O)cc24)CCC3)n1 [GALUNISERTIB] | > 30 µM (inactive) | – | > 30 µM (inactive) | > 30 µM (inactive) | – | – | – | –
20 | C[C@@H](Oc1cc(-n2cnc3ccc(CN4CCN(C)CC4)cc32)sc1C(N)=O)c1ccccc1C(F)(F)F [GSK-461364] | – | – | > 30 µM (inactive) | > 30 µM (inactive) | – | – | – | > 30 µM (inactive)
21 | CCn1cc(-c2ccnc3[nH]c(-c4cccc(CN(C)C)c4)cc23)c(-c2ccc(NC(=O)N(C)C)cc2)n1 [GSK-1070916] | > 30 µM (inactive) | – | > 30 µM (inactive) | – | – | > 30 µM (inactive) | > 30 µM (inactive) | > 30 µM (inactive)
22 | COc1ccc(S(=O)(=O)N(C(C)=O)c2ccccc2/C=C/c2cc[n+]([O-])cc2)cc1 [HMN-214] | > 30 µM (inactive) | > 30 µM (inactive) | > 30 µM (inactive) | – | – | > 30 µM (inactive) | – | > 30 µM (inactive)
23 | CNC(=O)c1cccc2cc(Oc3ccnc4cc(OCC5(N)CC5)c(OC)cc34)ccc12 [LUCITANIB] | – | > 30 µM (inactive) | – | > 30 µM (inactive) | > 30 µM (inactive) | – | – | –
24 | CN(C[C@@H]1COCCO1)S(=O)(=O)Nc1ccc2ccc3ncc(-c4cnn(C)c4)cc3c(=O)c2c1 [MK-2461] | – | > 30 µM (inactive) | – | > 30 µM (inactive) | > 30 µM (inactive) | – | – | –
25 | Cn1cc(-c2cnc3ccc4ccc(CS(=O)(=O)NCc5ccccn5)cc4c(=O)c3c2)cn1 [MK-8033] | > 30 µM (inactive) | > 30 µM (inactive) | – | > 30 µM (inactive) | > 30 µM (inactive) | > 30 µM (inactive) | – | > 30 µM (inactive)
26 | Cc1[nH]c(/C=C2\C(=O)Nc3ccccc32)c(C)c1CCC(=O)O [ORANTINIB] | > 30 µM (inactive) | – | > 30 µM (inactive) | > 30 µM (inactive) | – | > 30 µM (inactive) | > 30 µM (inactive) | > 30 µM (inactive)
27 | O=C(NOCCO)c1cc(CN2OCCCC2=O)c(F)c(F)c1Nc1ccc(I)cc1F [RO-4987655] | – | > 30 µM (inactive) | > 30 µM (inactive) | > 30 µM (inactive) | – | – | – | > 30 µM (inactive)
28 | N#CC[C@H](C1CCCC1)n1cc(-c2ncnc3[nH]ccc23)cn1 [RUXOLITINIB] | – | > 30 µM (inactive) | – | > 30 µM (inactive) | – | – | – | –
29 | CN1CCN(CCOc2cc(OC3CCOCC3)c3c(Nc4c(Cl)ccc5c4OCO5)ncnc3c2)CC1 [SARACATINIB] | > 30 µM (inactive) | – | – | – | – | > 30 µM (inactive) | > 30 µM (inactive) | –
30 | Cn1cc(-c2cnn3c(N)c(Br)c([C@@H]4CCCNC4)nc23)cn1 [SCH-900776] | > 30 µM (inactive) | > 30 µM (inactive) | – | – | > 30 µM (inactive) | > 30 µM (inactive) | – | –
31 | Cn1ncc(Cl)c1-c1cc(C(=O)N[C@H](CN)Cc2ccc(F)c(F)c2)oc1Cl [UPROSERTIB] | > 30 µM (inactive) | – | – | – | > 30 µM (inactive) | – | – | –
32 | CC(C)c1cc(CNc2nc(Nc3cc(C4CC4)[nH]n3)cc(N3CCN(C)CC3)n2)on1 [XL-228] | > 30 µM (inactive) | – | – | – | – | – | – | –
33 | CN1C/C=C/CCOc2cccc(c2)-c2ccnc(n2)Nc2cccc(c2)C1 [ZOTIRACICLIB] | – | – | – | > 30 µM (inactive) | – | – | – | –
